Several values for one entry are separate records, joined by “and”; a condition that tells them apart may be missing. Equal values may be shown once. Entries after “also recorded” stand apart in the source; their conditions may differ.
Experiments:
KCa3.1 [1] = target: T1, KCa3.1 (Homo sapiens, UniProt O15554); test: Whole-cell patch-clamp on HEK cells heterologously expressing KCa3.1; assay type: cell-based; conditions: for effect on KCa3.1 current: 10 µM, data not shown
T1 construct: expressed in transfected cells
Procedure: (§1) Our Isc results are consistent with VX-445 inhibiting KCa3.1 in HBEs. To directly assess this possibility, we initially carried out whole-cell patch-clamp studies on undifferentiated HBEs. […] Upon application of 10 µM VX-445, a majority of this current was inhibited, averaging 87 ± 4% (n = 3, P < 0.005; Fig. 3B). A summary of the current–voltage (I–V) relationship—normalized to cell capacitance—is shown in Fig. 3C, which also includes the whole-cell I–V in the presence of Tram-34. […] To ensure isolation of KCa3.1 currents and to more fully characterize this VX-445-dependent inhibition of KCa3.1, we utilized HEK cells heterologously expressing KCa3.1 (HEK-KCa3.1). Initially, we confirmed our results from HBEs, using whole-cell recordings, as above. […] In seven experiments, this inhibition averaged 58 ± 7% (P < 0.005). […] It is well recognized that drugs are carried to their targets in the blood bound to albumin, which ranges from 3.4 to 5.4%. Thus, we determined whether VX-445 (10 µM) would inhibit KCa3.1 expressed in HEK cells in the presence of 3.4% albumin. In four experiments, VX-445 inhibited an average of 51 ± 17% of the whole-cell KCa3.1 current, which is not different from that observed in the absence of albumin. To confirm the direct effect of VX-445 on KCa3.1, we utilized the excised, inside-out patch-clamp technique. The patch was then exposed to DCEBIO (100 µM) to further activate the channels ([34–37])—analogous to our Isc studies in HBEs. […] In three experiments, VX-445 inhibited an average of 63 ± 6% of the KCa3.1 current. Based on these experiments, we determined the apparent inhibitory constant, Ki for VX-445. For these experiments, patches were excised into saturating Ca^2+ (3 µM) to ensure maximal KCa3.1 activation. These studies were carried out in the absence of DCEBIO to eliminate the possibility that the inhibition observed was due to competition for the DCEBIO-binding site.
(§2) HEK cells stably expressing KCa3.1 (IK1, SK4), KCa2.3 (SK3), and KCa2.2 (SK2) were generated and cultured as previously described by us ([37], [66–71]).
(§3) HEK cells expressing the channel of interest were plated onto poly-L-lysine-coated glass coverslips 1–2 days prior to patch-clamp analysis. Electrophysiological recordings in the excised, inside-out, and whole-cell patch-clamp configurations were performed as recently described ([14]). For excised patch-clamp recordings, the pipette solution contained (in mM): 140 K-gluconate, 5 KCl, 1 CaCl2, 1 MgCl2, and 10 HEPES. The pH was adjusted to 7.2 with KOH. The bath solution contained (in mM): 145 K-gluconate, 5 KCl, 1.3 MgCl2, 10 HEPES, and 1 EGTA. Sufficient CaCl2 was added to obtain the desired free Ca^2+ concentration at a pH of 7.2 (adjusted with KOH). When recording KCa3.1 channels, ATP (300 µM) was added to the bath to diminish channel rundown ([73]). All recordings were carried out at a voltage of −100 mV, referenced to the extracellular compartment, as is standard. The apparent Ki and Hill coefficient for each CFTR corrector on KCa3.1, KCa2.3, and KCa2.2 were determined during a continuous recording by step-wise addition of increasing concentrations of compound and fitting the resultant relative remaining current to a Hill equation (Prism v. 10.1.0). The zero current level was determined by the addition of a 0 Ca^2+ solution (zero-added Ca^2+ plus 1 mM EGTA) at the end of the experiment. In the case of KCa3.1, TRAM-34, a known inhibitor of KCa3.1 ([45]), was used to confirm expression of the channel. For whole-cell experiments, pipettes contained (in mM): 145 K-gluconate, 10 EGTA, 7.5 CaCl2, 2 MgCl2, 3 mM NaATP, and 10 HEPES. The bath solution contained (in mM): 140 K-gluconate, 5 KCl, 1.0 MgCl2, 10 HEPES, and 2 CaCl2. Current–voltage relationships were determined by stepping from a holding potential of −80 mV to +80 mV in 20 mV increments for 400 ms. […]

[2] = tested on: primary WT CFTR-expressing HBEs; test: Ussing chamber Isc, forskolin-stimulated Cl- secretion; assay type: cell-based, human; conditions: for effect on the bumetanide-insensitive current: applied after forskolin and bumetanide, VX-445 10 µM, acetazolamide 1 µM
Text: (§4) Primary human bronchial epithelial cells (HBEs) were collected from unused or discarded samples from the Center for Organ Recovery and Education via the University of Pittsburgh Pulmonary, Allergy, Critical Care, and Sleep Medicine Lung Biobank and Repository. All experimental procedures involving the use of HBEs were approved by the institutional review board (IRB STUDY19090084) and the Committee for Oversight of Research and Clinical Training Involving Decedents (CORID number 451) at the University of Pittsburgh. At all times, authors were blind to the identity of HBE donors. HBEs were cultured using the Vertex method ([72]). Studies were carried out on WT CFTR HBEs from 11 ([13]) donors and homozygous F508del/F508del CFTR HBEs from five ([5]) separate donors. HBEs were plated on Costar Transwell permeable supports ([…], 6.5 mm insert, polyester membrane, Corning) and grown at an air–liquid interface for 5+ weeks in HBE differentiation medium containing 2% Ultroser-G. Basolateral media were replaced three times per week. For whole-cell patch-clamp studies, HBEs were maintained in BronchiaLife airway media (LifeLine Cell Technology, LS-1047) and plated onto poly-L-lysine-coated coverslips (see below).
(§5) Costar Transwell inserts were mounted in a modified Ussing chamber (P2300, Physiologic Instruments) and the monolayers continuously short-circuited (VCC MC8, Physiologic Instruments) by forcing the transepithelial voltage to 0 mV. Short-circuit current (Isc) measurements were taken in symmetric solutions, containing (in mM): 120 NaCl, 25 NaHCO3, 3.3 KH2PO4, 0.8 K2HPO4, 1.2 CaCl2, 1.2 MgCl2, and 10 glucose. The pH of the solution is 7.4 when gassed with 95% O2–5% CO2 at 37°C. Compounds were added cumulatively following the establishment of a new stable current response. Amiloride was added to the apical membrane, while all other compounds were added to both membranes due to their lipophilic nature. In all experiments, 10 µM amiloride was used to inhibit sodium absorption. Percent inhibition was calculated as the change in Isc (ΔIsc) between the forskolin or DCEBIO stable current level and the Isc following addition of the compound being assessed divided by the ΔIsc between the stable forskolin- or DCEBIO-induced Isc and the Isc following bumetanide addition.

[3] = tested on: BKCa (KCa1.1, KCNMA1) channels; parameters: method as in PMID 38954478; conditions: primary HBEs and HEK cells heterologously expressing the channel; cited from earlier work
[4] = target: T2, endogenous KCa3.1 in WT CFTR-expressing HBEs (Homo sapiens, UniProt O15554); test: Whole-cell patch-clamp on undifferentiated HBEs; assay type: cell-based; conditions: TRAM-34 subsequent to VX-445, Fig 3C single cells
T2 construct: endogenous in cells; host or cells: undifferentiated primary human bronchial epithelial cells (WT CFTR donors)
Procedure: as §1
Primary human bronchial epithelial cells (HBEs) were collected from unused or discarded samples from the Center for Organ Recovery and Education via the University of Pittsburgh Pulmonary, Allergy, Critical Care, and Sleep Medicine Lung Biobank and Repository. All experimental procedures involving the use of HBEs were approved by the institutional review board (IRB STUDY19090084) and the Committee for Oversight of Research and Clinical Training Involving Decedents (CORID number 451) at the University of Pittsburgh. At all times, authors were blind to the identity of HBE donors. HBEs were cultured using the Vertex method ([72]). Studies were carried out on WT CFTR HBEs from 11 ([13]) donors and homozygous F508del/F508del CFTR HBEs from five ([5]) separate donors. […]

WT CFTR HBEs = test: Ussing chamber Isc, DCEBIO-induced Cl- secretion; assay type: cell-based, human
Text: as §4, §5

KCa3.1 [5] = target: T1, KCa3.1; test: Excised inside-out patch-clamp on HEK-KCa3.1; assay type: biochemical; conditions: TRAM-34 3 µM after DCEBIO and VX-445 10 µM
Procedure: as §1, §2, §3

Compound: Cc1ccc(NC(=O)C2(c3ccc4c(c3)OC(F)(F)O4)CC2)nc1-c1cccc(C(=O)O)c1 [VX-809]
- effect on KCa3.1 current (KCa3.1 [1]): failed to inhibit

Compound: CCCCNc1cc(C(=O)O)cc(S(N)(=O)=O)c1Oc1ccccc1 [bumetanide]
- Isc in the presence of bumetanide ([2]; Fig 1F, single filters, after forskolin): 21 and 18 and 15 and 17 and 14 and 19 and 23 and 20

Compound: CC(C)(C)c1cc(C(C)(C)C)c(NC(=O)c2c[nH]c3ccccc3c2=O)cc1O [VX-770, ivacaftor]
- effect on BKCa [3]: had no effect

Compound: C=C[C@@]1(C)CC(=O)[C@]2(O)[C@@]3(C)[C@@H](O)CCC(C)(C)[C@@H]3[C@H](O)[C@H](OC(C)=O)[C@@]2(C)O1 [forskolin]
- Isc in the presence of forskolin ([2]; Fig 1F, single filters): 31 and 30 and 24 and 28 and 26 and 34 and 27 and 32
- Isc in the presence of forskolin ([2]; Fig 2B, single filters): 17 and 18 and 23 and 24 and 19 and 21

Compound: CC(C)(O)[C@H]1O[C@H]2CC[C@@]3(C)[C@@](O)(CC[C@H]4Cc5c([nH]c6ccccc56)[C@@]43C)C2=CC1=O [paxilline]
- Isc in the presence of paxilline ([2]; Fig 2B, single filters, paxilline 10 µM after forskolin and VX-445): 12 and 11 and 15 and 20 and 21 and 19 and 14
- effect on Isc subsequent to VX-445-induced decrease ([2]; paxilline 10 µM after forskolin and VX-445 10 µM): had no effect

Compound: CC(C)(CO)c1cc2cc(NC(=O)C3(c4ccc5c(c4)OC(F)(F)O5)CC3)c(F)cc2n1C[C@@H](O)CO [VX-661, tezacaftor]
- effect on KCa3.1 current (KCa3.1 [1]): had no effect; also recorded: failed to inhibit
- effect on forskolin-mediated Cl- secretion ([2]; VX-661 10 µM): had no effect
- effect on BKCa [3]: had no effect

Compound: Clc1ccccc1C(c1ccccc1)(c1ccccc1)n1cccn1 [TRAM-34]
- whole-cell current normalized to cell capacitance ([4]; -40 mV): 0.875 and 0.576
- whole-cell current normalized to cell capacitance ([4]; -60 mV): 0.344 and 0.305
- whole-cell current normalized to cell capacitance ([4]; -80 mV): 0.0478 and 0.0385
- effect on current remaining after VX-445 (KCa3.1 [1]; TRAM-34 1 µM after VX-445 10 µM): inhibited the remainder of the current
- effect on DCEBIO-stimulated Isc (WT CFTR HBEs; TRAM-34 5 µM, DCEBIO 100 µM, no VX-445): inhibits the DCEBIO-stimulated Isc response
- effect on DCEBIO-stimulated Isc following VX-445 (WT CFTR HBEs; TRAM-34 after DCEBIO and VX-445 10 µM): had little effect
- effect on forskolin-stimulated Isc ([2]; TRAM-34 5 µM, no VX-445): inhibits a portion of the current
- effect on forskolin-stimulated Isc following VX-445 ([2]; TRAM-34 after VX-445 10 µM): failed to inhibit additional current
- effect on the bumetanide-insensitive current [2]: failed to decrease
- effect on current remaining after VX-445 (KCa3.1 [5]): inhibited the remainder of the current

Compound: CC1(C)C[C@@H]2CCCNc3cccc(n3)S(=O)(=O)NC(=O)c3ccc(-n4ccc(OCCC5C6(CC6)C56CC6)n4)nc3N1C2 [VX-121, vanzacaftor]
- inhibition at 10 µM (KCa3.1 [1]; HEK293, VX-121 10 µM, three experiments, read-out: inhibition of whole-cell KCa3.1 current): 85 ± 8%
- effect on BKCa [3]: act as direct potentiators

Compound: CC(=O)Nc1nnc(S(N)(=O)=O)s1 [acetazolamide]
- effect on the bumetanide-insensitive current [2]: partially inhibited the remaining current
